Test results from patent US9789115B2 (priority 2010, dated 2017).

What was measured:
[1] = tested on: operated rats (plantar incision); details: rat, in vivo
[2] = tested on: opioid-treated operated rats; experiment: Experimental protocol 2: OIH precipitated by naloxone, withdrawal responses with von Frey filaments; type: in vivo, rat; details: for naloxone-precipitated hyperalgesia: naloxone on day 21
naïve rats = details: rat, in vivo
sigma 2 (σ-2) site = sigma 2 (σ-2) site (Homo sapiens, UniProt Q5BJF2); details: cited from earlier work
sigma 2 (σ-2) site, sequence (Q5BJF2 whole entry): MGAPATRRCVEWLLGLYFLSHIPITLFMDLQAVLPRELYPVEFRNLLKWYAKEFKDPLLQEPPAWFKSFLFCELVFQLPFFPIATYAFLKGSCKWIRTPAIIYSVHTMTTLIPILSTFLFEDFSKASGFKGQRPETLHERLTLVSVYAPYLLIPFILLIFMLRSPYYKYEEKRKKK

**Q.** What does the source list for Cc1cc(OCCN2CCOCC2)nn1-c1ccc2ccccc2c1 [compound n° 63, 4-{2-[5-Methyl-1-(naphthalen-2-yl)-1H-pyrazol-3-yloxy]ethyl}morpholine]?
**A.** allodynia secondary to surgery and OIH when Morphine was used [1]: inhibits allodynia secondary to surgery and OIH; decrease of the mechanical sensitization threshold induced by the surgery [1]: inhibit dose-dependently; development of OIH [1]: inhibits dose-dependently; enhancement of allodynia induced by perioperative morphine [1]: strongly reduced; naloxone-precipitated hyperalgesia ([2]; 80 mg/kg co-administered with last dose of opioid): unable to precipitate hyperalgesia; naloxone-precipitated hyperalgesia ([2]; 20 and 40 mg/kg co-administered with last dose of opioid): attenuation

**Q.** For CN1CC[C@]23c4c5ccc(O)c4O[C@H]2[C@@H](O)C=C[C@H]3[C@H]1C5 [morphine], which “analgesic effect of the opioid” value ([1]; ip) is on record?
**A.** analgesic effect

**Q.** What does the source list for CN1CCN(CCc2ccc(Cl)c(Cl)c2)CC1 [BD-1063]?
**A.** enhancement of allodynia induced by morphine administration (naïve rats): reduces the enhancement of allodynia; morphine-induced hyperalgesia (naïve rats): inhibited

**Q.** For SKF 10047, which “affinity for the sigma 2 site” value (sigma 2 (σ-2) site) is on record?
**A.** micromolar affinity

**Q.** For C=CCN1CC[C@]23c4c5ccc(O)c4O[C@H]2C(=O)CC[C@@]3(O)[C@H]1C5 [naloxone], which “nociceptive threshold after naloxone injection” value ([2]; naloxone 2 mg/kg on day 21 in opioid-treated rats) is on record?
**A.** significant decrease in the nociceptive threshold below the basal value

**Q.** And the “nociceptive threshold after naloxone injection” value ([2]; naloxone 2 mg/kg on day 21 in vehicle saline-treated rats)?
**A.** no significant effect
